The results in this text go back to patent US20230227453A1 (priority 2020, published 2023).

Molecules are shown by their SMILES. A value given as a limit tells only on which side of the number the result lay.

Test [1] has as its target T1, 5-HT2A (Homo sapiens, UniProt P28223). As to the kind of experiment: Serotonin 5-HT2A in vitro radioligand binding competition assay. Details: purchased Epics Therapeutics S.A. (Belgium) FAST-0505B; host or cells: membrane extracts. Conditions: radiotracer [3H]-DOI, membrane extracts. How it is done: Serotonin 5-HT2A In Vitro Radioligand Binding Competition Assay. The 5-HT2A radioligand binding competition assay was performed at Epics Therapeutics S.A. (Belgium, FAST-0505B) using conventional methods. Briefly, competition binding is performed in duplicate in the wells of a 96 well plate (Master Block, Greiner, 786201) containing binding buffer (optimized for each receptor), membrane extracts (amount of protein/well optimized for each receptor), radiotracer [^3H]-DOI (final concentration optimized for each receptor) and test compound. Nonspecific binding is determined by co-incubation with 200-fold excess of cold competitor. The samples are incubated in a final volume of 0.1 ml at a temperature and for a duration optimized for each receptor and then filtered over filter plates. Filters are washed six times with 0.5 ml of ice-cold washing buffer (optimized for each receptor) and 50 μl of Microscint 20 (Packard) are added in each well. The plates are incubated 15 min on an orbital shaker and then counted with a TopCount™ for 1 min/well.

The target in test [2] is T1, 5-HT2A. The test is described as follows: Serotonin 5-HT2A in vitro cellular IPOne agonism assay. It counts as cell-based. Details: host or cells: CHO-K1. The conditions noted are these: CHO-K1 cells, IPOne HTRF, 60 min. The protocol:
Serotonin 5-HT2A In Vitro Cellular IPOne Agonism Assay. The 5-HT2A IPOne HTRF assay was performed at Epics Therapeutics S.A. (Belgium, FAST-0505I) using conventional methods. Briefly, CHO-K1 cells expressing human recombinant 5-HT2A receptor grown to mid-log phase in culture media without antibiotics were detached with PBS-EDTA, centrifuged, and resuspended in medium without antibiotics buffer. 20,000 cells are distributed in a 96 well plate and incubated overnight at 37° C. with 5% CO2.
For agonist testing, the medium is removed and 20 μl of assay buffer plus 20 μl of test compound or reference agonist are added in each well. The plate is incubated for 60 min. at 37° C. with 5% CO2.
After addition of the lysis buffer containing IP1-d2 and anti-IP1 cryptate detection reagents, plates are incubated 1-hour at room temperature, and fluorescence ratios are measured according to the manufacturer specification, with the HTRF kit.
(TR-FRET usually uses a lanthanide donor and a delayed reading to cut background.)

The test system of another test is rat cortical neurons. The test is described as follows: Neurite Outgrowth Assay (Procedure B). It counts as cell-based. Details: key: A: Statistically significant mean increase as a percent of DMSO control at 10 μM or less; B: No statistically significant mean increase as a percent of DMSO control at 10 μM or less. Conditions: primary rat neuronal cultures, 72h, vs DMSO control, 10 μM or less. How it is done: Neurite Outgrowth Assay (Procedure B). Pregnant Wistar rats (Janvier; France) were used for the study. They were delivered 6 days before their use. Upon arrival at Neurofit animal facility, they were housed one per cage and maintained in a room with controlled temperature (21-22° C.) and a reversed light-dark cycle (12h/12h; lights on: 17:30-05:30; lights off: 05:30-17:30) with food and water available ad libitum.
Female Wistar rats of 17 days gestation were killed by cervical dislocation and the fetuses were removed from the uterus. Their brains were placed in ice-cold medium of Leibovitz (L15, Gibco, Fisher bioblock, France). Cortices were dissected and meninges were carefully removed. The cortical neurons were dissociated by trypsinization for 30 min at 37° C. (trypsin-EDTA, Gibco) in presence of 0.1 mg/ml DNAse I (Roche, France). The reaction was stopped by addition of Dulbecco's Modified Eagle Medium (DMEM; Gibco) with 10% of fetal bovine serum (FBS; Gibco). The suspension was triturated with a 10-ml pipette and using a needle syringe 21G and centrifuged at 350×g for 10 min at room temperature. The pellet of dissociated cells was resuspended in a medium consisting of Neurobasal (Gibco) supplemented with 2% B27 supplement (Gibco), 0.5 mM L-Glutamine (Gibco), an antibiotic-antimicotic mixture. Viable cells were counted in a Neubauer cytometer using the trypan blue exclusion test (Sigma). Cells were seeded at a density of 10000 cells per well in 96-well plate (Costar) precoated with poly-L-lysine. Test compound at different concentrations were added to the cultures. Donepezil (positive control) was tested at 250 nM.
After 72h (3 days) of plating, cultures were fixed with paraformaldehyde in PBS (4%, Sigma) for 30 min at 4° C. Then, cells were successively permeabilized with 0.1% Triton X100 for 30 min, saturated with PBS containing 3% of BSA and were incubated 1 h with anti-beta III tubulin antibody (Sigma) at 1/10 000 in PBS containing 0.5% of BSA. Cells were washed three times with PBS containing 0.5% of BSA, and they were incubated 1 h with goat anti-mouse antibody coupled with AF488 (Invitrogen A11001) diluted at 1/1000 in PBS containing 0.5% of BSA. Finally, nuclei were staining with DAPI 1 mg/ml at 1/1000 in PBS containing 0.5% of BSA. After rinsing with PBS, the plate was filmed and neurite networks were examined and analyzed using High-Content Screening (Celllnsight, Thermo Scientific). The average number of neurites per neuron and the average total length of neurites per neuron were the main parameters analyzed. Analysis of data was performed using analysis of variance (ANOVA). The Fisher's Protected Least Significant Difference test was used for multiple comparisons. A p value≤0.05 was considered significant. The software used is StatView 5.0 from SAS Institut.

T1 sequence (P28223 whole entry): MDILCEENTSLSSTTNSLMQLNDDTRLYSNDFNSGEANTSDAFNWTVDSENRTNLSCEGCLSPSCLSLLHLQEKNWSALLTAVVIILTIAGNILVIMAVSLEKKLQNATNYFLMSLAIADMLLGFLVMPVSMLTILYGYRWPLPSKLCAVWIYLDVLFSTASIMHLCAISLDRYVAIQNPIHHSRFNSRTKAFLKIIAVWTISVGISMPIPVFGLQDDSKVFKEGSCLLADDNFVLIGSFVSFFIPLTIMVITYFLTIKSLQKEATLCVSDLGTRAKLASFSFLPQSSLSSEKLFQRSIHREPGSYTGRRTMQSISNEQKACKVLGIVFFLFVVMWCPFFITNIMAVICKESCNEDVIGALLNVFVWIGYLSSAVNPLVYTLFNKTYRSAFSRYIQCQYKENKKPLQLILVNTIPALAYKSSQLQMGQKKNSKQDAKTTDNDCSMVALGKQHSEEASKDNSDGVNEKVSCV

By IC50 is commonly meant the concentration needed to halve the response being measured. Broadly, the EC50 is the concentration needed to bring the measured effect to its halfway point. `CN1CCc2[nH]c3nc(Br)ccc3c2CC1` [Example 19, 2-bromo-7-methyl-5,6,7,8,9,10-hexahydropyrido[3′,2′:4,5]pyrrolo[2,3-d]azepine] registered an IC50 at 5-HT2A [1] of 1000 to 10000 nM. On 5-HT2A [2], this compound had an EC50 of 101 to 1000 nM.
Turning to `Cc1ccc2c3c(n(C)c2n1)CCN(C1COC1)CC3` [Example 11, 2,10-dimethyl-7-(oxetan-3-yl)-5,6,7,8,9,10-hexahydropyrido[3′,2′:4,5]pyrrolo[2,3-d]azepine], the IC50 on 5-HT2A [1] is above 10000 nM. At 5-HT2A [2], this compound had an EC50 above 10000 nM. For the same compound, in the test with rat cortical neurons, the “Increase in Neurite Length” value is “B” and the “Increase in Neurite Number” value was “B”.
Consider `COc1cc2c3c([nH]c2cn1)CCN(C)CC3` [Example 14, 3-methoxy-7-methyl-5,6,7,8,9,10-hexahydropyrido[4′,3′:4,5]pyrrolo[2,3-d]azepine], for which the IC50 at 5-HT2A [1] is above 10000 nM. In addition, at 5-HT2A [2], the EC50 is above 10000 nM.
As to `Cn1c2c(c3cccnc31)CCN(C1COC1)CC2` [Example 23, 10-methyl-7-(oxetan-3-yl)-5,6,7,8,9,10-hexahydropyrido[3′,2′:4,5]pyrrolo[2,3-d]azepine], the IC50 on 5-HT2A [1] is above 10000 nM. At 5-HT2A [2], this compound displayed an EC50 of 1000 to 10000 nM.
For `Cn1c2c(c3cccnc31)CCNCC2` [Example 18, 10-methyl-5,6,7,8,9,10-hexahydropyrido[3′,2′:4,5]pyrrolo[2,3-d]azepine], in that order: 101 to 1000 nM and 101 to 1000 nM.
For `Cn1c2c(c3ccc(Br)nc31)CCNCC2` [Example 25, 2-bromo-10-methyl-5,6,7,8,9,10-hexahydropyrido[3′,2′:4,5]pyrrolo[2,3-d]azepine], the IC50 at 5-HT2A [1] fell in the range of 101 to 1000 nM. The same compound came in with an EC50 at 5-HT2A [2] of 10 to 100 nM.
At 5-HT2A [1], `COc1ccc2c3c(n(C)c2n1)CCN(C)CC3` [Example 3, 2-methoxy-7,10-dimethyl-5,6,7,8,9,10-hexahydropyrido[3′,2′:4,5]pyrrolo[2,3-d]azepine] registered a 50% inhibitory concentration (IC50) of 1000 to 10000 nM. The compound further came in with an EC50 at 5-HT2A [2] of 101 to 1000 nM. Further, in the test on rat cortical neurons, the “Increase in Neurite Length” value was “B” and the “Increase in Neurite Number” value is “B”.
Consider `Cc1ccc2c3c(n(C)c2n1)CCN(C)CC3` [Example 12, 2,7,10-trimethyl-5,6,7,8,9,10-hexahydropyrido[3′,2′:4,5]pyrrolo[2,3-d]azepine], for which the IC50 at 5-HT2A [1] was in the range of 1000 to 10000 nM. The half-maximal effective concentration (EC50) at 5-HT2A [2] fell in the range of 101 to 1000 nM. For the same compound, in the test on rat cortical neurons, the “Increase in Neurite Length” value is reported as “B” and the “Increase in Neurite Number” value was “B”.
In the case of `CN1CCc2c(n(C)c3ncccc23)CC1` [Example 21, 7,10-dimethyl-5,6,7,8,9,10-hexahydropyrido[3′,2′:4,5]pyrrolo[2,3-d]azepine], the IC50 on 5-HT2A [1] lay within 101 to 1000 nM. The same compound came in with an EC50 at 5-HT2A [2] of 101 to 1000 nM.
Regarding `c1cnc2[nH]c3c(c2c1)CCNCC3` [Example 17, 5,6,7,8,9,10-hexahydropyrido[3′,2′:4,5] pyrrolo[2,3-d] azepine], the IC50 at 5-HT2A [1] is 101 to 1000 nM. Further, the 50% effective concentration (EC50) at 5-HT2A [2] is 101 to 1000 nM.
As for `CN1CCc2c(n(C)c3ncc(Cl)cc23)CC1` [Example 30, 3-chloro-7,10-dimethyl-5,6,7,8,9,10-hexahydropyrido[3′,2′:4,5]pyrrolo[2,3-d]azepine], on 5-HT2A [1], the IC50 lay within 101 to 1000 nM. Moreover, the EC50 at 5-HT2A [2] lay within 101 to 1000 nM.
Turning to `Brc1ccc2c3c([nH]c2n1)CCN(C1COC1)CC3` [Example 24, 2-bromo-7-(oxetan-3-yl)-5,6,7,8,9,10-hexahydropyrido[3′,2′:4,5]pyrrolo[2,3-d]azepine], at 5-HT2A [1], the IC50 fell in the range of 1000 to 10000 nM. Further, the half-maximal effective concentration (EC50) on 5-HT2A [2] lay within 1000 to 10000 nM.
In turn, `Clc1cnc2[nH]c3c(c2c1)CCN(C1COC1)CC3` [Example 27, 3-chloro-7-(oxetan-3-yl)-5,6,7,8,9,10-hexahydropyrido[3′,2′:4,5]pyrrolo[2,3-d]azepine] had a concentration for half-maximal inhibition (IC50) on 5-HT2A [1] of 1000 to 10000 nM. The compound further registered an EC50 on 5-HT2A [2] of 1000 to 10000 nM.
At 5-HT2A [1], `Cc1ccc2c3c(n(C)c2n1)CCNCC3` [Example 10, 2,10-dimethyl-5,6,7,8,9,10-hexahydropyrido[3′,2′:4,5]pyrrolo[2,3-d]azepine] registered an IC50 of 1000 to 10000 nM. The compound further showed an EC50 on 5-HT2A [2] of 10 to 100 nM.
For `Cn1c2c(c3cc(Cl)cnc31)CCN(C1COC1)CC2` [Example 29, 3-chloro-10-methyl-7-(oxetan-3-yl)-5,6,7,8,9,10-hexahydropyrido[3′,2′:4,5]pyrrolo[2,3-d]azepine], in that order: above 10000 nM and 1000 to 10000 nM.
On the same counts, the results for `c1cnc2[nH]c3c(c2c1)CCN(C1COC1)CC3` [Example 22, 7-(oxetan-3-yl)-5,6,7,8,9,10-hexahydropyrido[3′,2′:4,5]pyrrolo[2,3-d]azepine] are above 10000 nM and above 10000 nM.
For `Cn1c2c(c3cc(Cl)cnc31)CCNCC2` [Example 28, 3-chloro-10-methyl-5,6,7,8,9,10-hexahydropyrido[3′,2′:4,5]pyrrolo[2,3-d]azepine], in that order: 101 to 1000 nM and 101 to 1000 nM.
Compound `Clc1cnc2[nH]c3c(c2c1)CCNCC3` [Example 13, 3-chloro-5,6,7,8,9,10-hexahydropyrido[3′,2′:4,5]pyrrolo[2,3-d] azepine] gave an IC50 at 5-HT2A [1] of 101 to 1000 nM. On 5-HT2A [2], this compound gave an EC50 of 10 to 100 nM.
On to `Brc1ccc2c3c([nH]c2n1)CCNCC3` [Example 16, 2-bromo-5,6,7,8,9,10-hexahydropyrido[3′,2′:4,5]pyrrolo[2,3-d]azepine], for which the IC50 on 5-HT2A [1] fell in the range of 101 to 1000 nM. Moreover, the EC50 at 5-HT2A [2] was in the range of 10 to 100 nM.
On the same counts, the results for `CN1CCc2[nH]c3ncccc3c2CC1` [Example 20, 7-methyl-5,6,7,8,9,10-hexahydropyrido[3′,2′:4,5]pyrrolo[2,3-d]azepine] are 101 to 1000 nM and 101 to 1000 nM.
On the same counts, the results for `COc1ccc2[nH]c3c(c2n1)CCN(C)CC3` [Example 15, 2-methoxy-8-methyl-5,6,7,8,9,10-hexahydropyrido[2′,3′:4,5]pyrrolo[2,3-d]azepine] are 101 to 1000 nM and 101 to 1000 nM.
For `COc1ccc2c3c(n(C)c2n1)CCN(C1COC1)CC3` [Example 6, 2-methoxy-10-methyl-7-(oxetan-3-yl)-5,6,7,8,9,10-hexahydropyrido[3′,2′:4,5]pyrrolo[2,3-d]azepine], in that order: above 10000 nM and 1000 to 10000 nM.
`CN1CCc2[nH]c3ncc(Cl)cc3c2CC1` [Example 26, 3-chloro-7-methyl-5,6,7,8,9,10-hexahydropyrido[3′,2′:4,5]pyrrolo[2,3-d]azepine] returned an IC50 on 5-HT2A [1] of 101 to 1000 nM. Also, on 5-HT2A [2], the EC50 was 101 to 1000 nM.
